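48-hour exposure; five concentrations; linearly interpolated endpoints. Abbreviation: GI50, concentration required for 50% inhibition of growth.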 The source made the active and inactive calls. No stated cut-off is given here; in the data, active = GI50 up to about 1.1 µM and inactive = higher.
How the values were obtained:
Assay in all cases: NCI anticancer screen, dose series, 48 h
[1] = test system: SNB-19
[2] = test system: T47D
[3] = test system: UACC-62
[4] = test system: A498
[5] = test system: COLO 205
[6] = test system: MOLT-4
[7] = test system: SK-OV-3
[8] = test system: OVCAR-5
[9] = test system: EKVX
[10] = test system: OVCAR-3
[11] = test system: Malme-3M
[12] = test system: HCC 2998
[13] = test system: SF-295
[14] = test system: Hs-578T
[15] = test system: BT-549
[16] = test system: MDA-MB-231
[17] = test system: M14
[18] = test system: TK-10
[19] = test system: HOP-92
[20] = test system: DU-145
[21] = test system: HCT-116
[22] = test system: MDA-MB-435
[23] = test system: RPMI-8226
[24] = test system: PC-3
[25] = test system: HOP-62
[26] = test system: SN12C
[27] = test system: CCRF-CEM
[28] = test system: IGROV-1
[29] = test system: LOX IMVI
[30] = test system: MDA-N
[31] = test system: CAKI-1
[32] = test system: UO-31
[33] = test system: SW-620
[34] = test system: SK-MEL-5
[35] = test system: HT-29
[36] = test system: NCI/ADR-RES
[37] = test system: NCI-H460
[38] = test system: ACHN
[39] = test system: HCT-15
[40] = test system: U-251
[41] = test system: 786-0
[42] = test system: HL-60
[43] = test system: OVCAR-4
[44] = test system: MCF7
[45] = test system: SNB-75
[46] = test system: NCI-H522
[47] = test system: OVCAR-8
[48] = test system: SK-MEL-2
[49] = test system: KM12
[50] = test system: SF-539
[51] = test system: SR
[52] = test system: A549
[53] = test system: SK-MEL-28
[54] = test system: NCI-H23
[55] = test system: UACC-257
[56] = test system: RXF 393
[57] = test system: SF-268
[58] = test system: K562
[59] = test system: NCI-H226

Measured: GI50

CC(C)O/N=C/c1cc(NC(=S)OC(C)C)ccc1Cl
inactive: [1] > 54.8 µM | [2] 34.3 µM | [3] 29.7 µM | [4] 44.7 µM | [5] 56.8 µM | [6] 15.8 µM | [7] 38.8 µM | [8] 48.6 µM | [9] 19.1 µM | [10] 32.5 µM | [11] > 91.8 µM | [12] 45.2 µM | [13] 25.2 µM | [14] 30.1 µM | [15] 55.5 µM | [16] 19.1 µM | [17] 62.7 µM | [18] > 58.6 µM | [19] > 44.2 µM | [20] > 65.5 µM | [21] 23.3 µM | [22] > 61.4 µM | [23] 13.8 µM | [24] 36.8 µM | [25] 37.8 µM | [26] 31.6 µM | [27] 13.5 µM | [28] 28.2 µM | [29] 28.1 µM | [30] > 69.5 µM | [31] 22.9 µM | [32] 21.7 µM | [33] 45.2 µM | [34] 23 µM | [35] 23.1 µM | [36] 35.5 µM | [37] 42.3 µM | [38] 35.2 µM | [40] 32.2 µM | [41] 33.3 µM | [42] 20.4 µM | [43] 31.7 µM | [44] 23.5 µM | [45] 18.5 µM | [46] 26 µM | [47] 36.9 µM | [48] 26 µM | [49] 50.9 µM | [50] 24.8 µM | [51] 16.1 µM | [52] 35.4 µM | [53] > 62.2 µM | [54] 43.9 µM | [55] > 100 µM | [56] 20.6 µM | [57] 36.1 µM | [58] 29.4 µM | [59] 28.8 µM
36.9 µM: [39]

Cc1ccc(NC(c2ccccc2)P(=O)(c2ccccc2)c2ccccc2)cc1 (stereo not drawn)
inactive: [1] 53.7 µM | [2] > 100 µM | [3] > 100 µM | [4] > 100 µM | [5] > 100 µM | [6] > 100 µM | [7] > 100 µM | [8] > 100 µM | [9] > 100 µM | [10] > 100 µM | [11] > 100 µM | [12] > 100 µM | [13] 29.9 µM | [14] 44.7 µM | [15] > 100 µM | [16] > 100 µM | [17] > 100 µM | [18] > 100 µM | [19] 27.2 µM | [20] > 100 µM | [21] > 100 µM | [22] > 100 µM | [23] > 100 µM | [24] > 100 µM | [25] 95.5 µM | [26] > 100 µM | [27] > 10 µM | [28] > 100 µM | [29] > 100 µM | [30] > 100 µM | [31] > 100 µM | [32] > 100 µM | [33] > 100 µM | [34] > 100 µM | [35] > 100 µM | [36] > 100 µM | [37] > 100 µM | [38] 63.7 µM | [40] > 100 µM | [41] 95.1 µM | [42] 34 µM | [43] > 100 µM | [44] > 100 µM | [45] 13.7 µM | [46] > 100 µM | [47] > 100 µM | [48] 39.6 µM | [49] > 100 µM | [50] > 100 µM | [51] 60.3 µM | [52] > 100 µM | [53] > 100 µM | [54] > 100 µM | [55] > 100 µM | [56] 47.1 µM | [57] 71.3 µM | [58] 34.4 µM | [59] > 100 µM
> 100 µM: [39]

Reference: ChEMBL document CHEMBL1201862, “PubChem BioAssay data set” (2004)
